Assay results as given in publication PMC12082738 (Journal of Enzyme Inhibition and Medicinal Chemistry, 2025).
Blank lines part the entries; values can stand above or below the compound they belong to.

Key:
E. coli β-GUS = E. coli β-GUS (Escherichia coli, UniProt P05804); experiment: β-GUS inhibition assay; type: biochemical; settings: for Inhibition type, β-GUS: Lineweaver–Burk and Dixon plots, substrate 4-MUG
S. cerevisiae α-GUS = S. cerevisiae α-GUS (Saccharomyces cerevisiae, UniProt P07265); experiment: α-GUS inhibition assay; type: biochemical
α-amylase = settings: read-out: IC50 α-amylase; cited from earlier work
[1] = target: protein tyrosine phosphatase-1B; settings: read-out: IC50 protein tyrosine phosphatase-1B; cited from earlier work
L6 myotubes = settings: cited from earlier work
[2] = test system: human umbilical vein endothelial cells; settings: cited from earlier work
[3] = test system: platelet-activating factor acetyltransferase; settings: read-out: IC50 platelet-activating factor acetyltransferase; cited from earlier work
colorectal cancer cells = settings: 7.1 μM; cited from earlier work
α-GUS = settings: read-out: IC50 against α-GUS; cited from earlier work
β-GUS = settings: read-out: IC50 against β-GUS; cited from earlier work
[4] = substrate kinetics, preliminary kinetic assay

Sequence of E. coli β-GUS (P05804 whole entry): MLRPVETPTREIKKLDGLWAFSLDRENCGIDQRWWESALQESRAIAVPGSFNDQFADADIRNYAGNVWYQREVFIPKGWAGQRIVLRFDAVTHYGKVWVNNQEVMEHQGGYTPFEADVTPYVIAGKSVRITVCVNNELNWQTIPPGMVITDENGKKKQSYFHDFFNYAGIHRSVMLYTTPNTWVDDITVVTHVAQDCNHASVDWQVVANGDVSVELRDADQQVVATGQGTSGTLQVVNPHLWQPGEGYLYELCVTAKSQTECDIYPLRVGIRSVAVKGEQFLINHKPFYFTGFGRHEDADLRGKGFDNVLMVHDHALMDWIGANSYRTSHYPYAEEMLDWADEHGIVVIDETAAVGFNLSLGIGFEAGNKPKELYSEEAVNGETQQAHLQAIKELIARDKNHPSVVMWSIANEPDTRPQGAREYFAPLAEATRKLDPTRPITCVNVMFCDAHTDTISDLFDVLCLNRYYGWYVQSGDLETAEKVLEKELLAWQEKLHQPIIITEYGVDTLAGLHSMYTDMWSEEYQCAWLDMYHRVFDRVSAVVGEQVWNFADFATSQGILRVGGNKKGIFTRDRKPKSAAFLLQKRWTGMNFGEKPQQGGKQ
Sequence of S. cerevisiae α-GUS (P07265 whole entry): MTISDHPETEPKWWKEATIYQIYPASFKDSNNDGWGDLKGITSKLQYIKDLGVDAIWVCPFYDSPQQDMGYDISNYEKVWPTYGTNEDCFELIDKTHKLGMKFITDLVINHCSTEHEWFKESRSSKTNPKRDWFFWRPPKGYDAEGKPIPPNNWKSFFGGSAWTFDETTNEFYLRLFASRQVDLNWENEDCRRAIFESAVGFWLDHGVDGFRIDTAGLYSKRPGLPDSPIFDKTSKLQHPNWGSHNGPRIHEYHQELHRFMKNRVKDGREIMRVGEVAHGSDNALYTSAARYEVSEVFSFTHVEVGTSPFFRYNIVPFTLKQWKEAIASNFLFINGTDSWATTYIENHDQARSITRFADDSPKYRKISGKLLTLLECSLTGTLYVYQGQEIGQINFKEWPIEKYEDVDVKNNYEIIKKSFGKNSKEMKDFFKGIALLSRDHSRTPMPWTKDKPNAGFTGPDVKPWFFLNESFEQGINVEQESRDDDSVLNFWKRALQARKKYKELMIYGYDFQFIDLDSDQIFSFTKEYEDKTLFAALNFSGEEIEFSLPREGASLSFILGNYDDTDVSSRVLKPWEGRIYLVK

SMILES: Cc1cc(=O)oc2cc(O[C@@H]3O[C@H](C(=O)O)[C@@H](O)[C@H](O)[C@H]3O)ccc12 [4-MUG, 4-Methylumbelliferyl-β-D-glucuronide, reference compound]
Vmax for 4-MUG hydrolysis by β-GUS (E. coli β-GUS; [4]): 7.21 ± 0.10 µmol/min/mg

SMILES: O=c1c(-c2ccc(O)cc2)coc2cc(O)ccc12 [daidzein]
IC50 (α-GUS): > 100 µM
IC50 (β-GUS): > 100 µM

Further lines, with some results ahead:

Ki (S. cerevisiae α-GUS): 11.4 ± 2.2 µM
IC50 (S. cerevisiae α-GUS; IC50 for inhibition of α-GUS, substrate PNPG 500 μM): 60.6 ± 10.3 µM
Inhibition type, α-GUS (S. cerevisiae α-GUS; Lineweaver–Burk and Dixon plots, substrate PNPG): Un-competitive
IC50 (E. coli β-GUS): 4.05 ± 0.16 µM
Ki (E. coli β-GUS): 2.62 ± 0.1 µM
Inhibition type, β-GUS (E. coli β-GUS): Non-competitive
Inhibition type, β-GUS (E. coli β-GUS; listed as Diprenylgenistein): competitive
SMILES: CC(C)=CCc1c(O)c(CC=C(C)C)c2occ(-c3ccc(O)cc3)c(=O)c2c1O [DPG, 6,8-diprenylgenistein]
IC50 (α-amylase): 14.8 µM
IC50 [1]: 2.3 to 28 µM
concentration increasing basal and insulin-stimulated glucose uptake (L6 myotubes): > 10 µM
concentration reversing high glucose induced injury [2]: > 2.5 µM
IC50 [3]: 19 µM
effect on colorectal cancer cells (colorectal cancer cells): trigger dual apoptosis and autophagy

IC50 (E. coli β-GUS): 55 ± 7.6 µM
SMILES: O=C(O)[C@@H](O)[C@H]1OC(=O)[C@H](O)[C@H]1O [DSL, D-Saccharic acid 1,4-lactone, reference compound]

Vmax for PNPG hydrolysis by α-GUS (S. cerevisiae α-GUS; [4]): 1.05 ± 0.03 μmol/min/U
SMILES: O=[N+]([O-])c1ccc(O[C@H]2O[C@H](CO)[C@@H](O)[C@H](O)[C@H]2O)cc1 [PNPG, 4-Nitrophenyl-α-D-glucopyranoside, reference compound]
